Results from patent US20080187575A1 (priority 2004, published 2008).

Test system: pathogenic form of the prion protein PrP^Sc in prion infected cells (3F4-ScN2a)
Type: cell-based, mouse
Conditions: for amount of PrP^Sc in prion infected cells: concentration range between 5 and 20 μM (final concentration), three days; for activity of prion propagation (FIG. 5): within concentration range 5 to 20 μM

| SMILES | amount of PrP^Sc in prion infected cells | activity of prion propagation (FIG. 5) |
| --- | --- | --- |
| Cc1ccc(N)cc1Nc1nccc(-c2cccnc2)n1 [Compound 4, 4-Methyl-N-3-(4-pyridin-3-yl-pyrimidin-2-yl)-benzene-1,3-diamine] | significantly reduced | inhibit almost completely |
| Cc1ccc(NC(=O)c2ccc(CCl)cc2)cc1Nc1nccc(-c2cccnc2)n1 [Compound 5, 4-Chloromethyl-N-[4-methyl-3-(4-pyridin-3-yl-pyrimidin-2-ylamino)-phenyl]-benzamide] | significantly reduced | inhibit almost completely |
| O=S(=O)(Nc1cccc(Nc2nccc(-c3ccncc3)n2)c1)c1ccc(Cl)cc1 [Compound 37, 4-Chloro-N-[3-(4-pyridin-4-yl-pyrimidin-2-ylamino)-phenyl]-benzenesulfonamide] | significantly reduced | inhibit almost completely |
